How the values were obtained:
Assay type in all cases: in vivo
corn [1] = test: Test Example 4: effect on crop by soil treatment (symbol c); conditions: application herbicide amount 320 g/ha
Summary of the method: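 Crop seed is sown in spots together with several weed species in a box of sterilized diluvial soil. It is covered by about 1.5 cm of soil and kept in a greenhouse held between 25° C. and 30° C.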

Digitaria ciliaris = test: Test Example 5: herbicidal effect by foliage application, plastic box (symbol F); conditions: 320 g/ha, 3 weeks after application
Summary of the method: (§1)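 Emulsion formulation, diluted with water to the intended rate, was applied uniformly to leaves by small sprayer. Recipients were 14-day greenhouse-grown seedlings (25° C. to 30° C.). Assessment followed at 3 weeks.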

rice = test: Test Example 4: effect on crop by soil treatment (symbol b); conditions: application herbicide amount 320 g/ha
Summary of the method: (§2)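 Soil-treatment setup: crop and weed seeds were spot-sown into sterilized diluvial soil, then buried beneath approximately 1.5 cm of it, and the boxes were housed in a 25–30° C. greenhouse.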

Galium spurium = test: Test Example 5: herbicidal effect by foliage application, plastic box (symbol Q); conditions: 320 g/ha, 3 weeks after application
Summary of the method: as §1

Lolium multiflorum Lam. = test: Test Example 5: herbicidal effect by foliage application, plastic box (symbol K); conditions: 320 g/ha, 3 weeks after application
Summary of the method: as §1

soybean = test: Test Example 5: effect on crop by foliage application, plastic box (symbol d); conditions: 320 g/ha, 3 weeks after application
Summary of the method: (§3)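 Sterilized diluvial soil, plastic box (21 × 13 × 7 cm); spot sowing, ~1.5 cm soil cover; greenhouse 25–30° C.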

Monochoria vaginalis = test: Test Example 1: herbicidal activity, application before weed generation in submerged conditions (symbol C); conditions: application herbicide amount 320 g/ha
Summary of the method: (§4)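 Pre-emergence, paddy conditions: emulsifiable formulation diluted in water, dosed onto floodwater (4 cm depth) on sowing day. Alluvial soil; weeds sown mixed; rice transplanted at 2.5-leaf stage. Greenhouse 25–30 °C, 3 wk. Score 0–5 (5 = ≥90% kill, 0 = ≤5%).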

Scirpus juncoides [2] = test: Test Example 1: herbicidal activity, application before weed generation in submerged conditions (symbol B); conditions: application herbicide amount 320 g/ha
Summary of the method: as §4

Chenopodium album = test: Test Example 5: herbicidal effect by foliage application, plastic box (symbol O); conditions: 320 g/ha, 3 weeks after application
Summary of the method: as §1

rapeseed = test: Test Example 4: effect on crop by soil treatment (symbol g); conditions: application herbicide amount 320 g/ha
Summary of the method: as §2

Scirpus juncoides [3] = test: Test Example 2: herbicidal activity, application during weed generation in submerged conditions (symbol B); conditions: Table 23; application herbicide amount 320 g/ha; grade 0-5 by criteria of Test Example 1
Summary of the method: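 Paddy pot test, submerged (4 cm water), alluvial soil, mixed sowing; greenhouse 25–30° C. Emulsion formulation diluted to predetermined rate, applied onto floodwater at 1–2 leaf stage. Visual herbicidal rating at 3 wk post-treatment.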

corn [4] = test: Test Example 5: effect on crop by foliage application, plastic box (symbol c); conditions: 320 g/ha, 3 weeks after application
Summary of the method: as §3

Veronica persica = test: Test Example 5: herbicidal effect by foliage application, plastic box (symbol R); conditions: 320 g/ha, 3 weeks after application
Summary of the method: as §1

Avena fatua = test: Test Example 4: herbicidal effect by soil treatment (symbol I); conditions: application herbicide amount 320 g/ha
Summary of the method: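 Seeds were sown in sterilized diluvial soil, covered with about 1.5 cm of soil, and the soil surface was sprayed with a water-diluted emulsion of the compound at a predetermined rate. Plants grew in a greenhouse at 25° C. to 30° C.; effects were scored visually 3 weeks after application.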

Question: How did the “Effect on crop grade, c: corn” value (corn [1]) turn out when `CON=C(C)C(=NOC)C1CC(O)=C(c2c(C)cc(C)cc2C)C1=O` (centres unmarked) [8-003] was run?
Answer: 0 (Herbicidal ratio of 5% or lower (almost no effect))

Question: What about the “F: Digitaria ciliaris, herbicidal effect grade” value (Digitaria ciliaris) of the same compound?
Answer: 0 (Herbicidal ratio of 5% or lower (almost no effect))

Question: What about the “Effect on crop grade, b: directly sowed rice plant” value (rice) of the same compound?
Answer: 0 (Herbicidal ratio of 5% or lower (almost no effect))

Question: What about the “Q: Galium spurium, herbicidal effect grade” value (Galium spurium) of the same compound?
Answer: 0 (Herbicidal ratio of 5% or lower (almost no effect))

Question: What about the “K: Lolium multiflorum Lam., herbicidal effect grade” value (Lolium multiflorum Lam.) of the same compound?
Answer: 2 (Herbicidal ratio of 20% or higher and lower than 40%)

Question: And the “d: soybean, effect on crop grade” value (soybean)?
Answer: 0 (Herbicidal ratio of 5% or lower (almost no effect))

Question: And the “Herbicidal effect grade, C: Monochoria vaginalis” value (Monochoria vaginalis)?
Answer: 0 (Herbicidal ratio of 5% or lower (almost no effect))

Question: What about the “Herbicidal effect grade, B: Scirpus juncoides” value (Scirpus juncoides [2]) of the same compound?
Answer: 0 (Herbicidal ratio of 5% or lower (almost no effect))

Question: What about the “O: Chenopodium album, herbicidal effect grade” value (Chenopodium album) of the same compound?
Answer: 0 (Herbicidal ratio of 5% or lower (almost no effect))

Question: What about the “Effect on crop grade, g: rapeseed” value (rapeseed) of the same compound?
Answer: 0 (Herbicidal ratio of 5% or lower (almost no effect))

Question: What about the “Herbicidal effect grade, B: Scirpus juncoides” value (Scirpus juncoides [3]) of the same compound?
Answer: 0 (Herbicidal ratio of 5% or lower (almost no effect))

Question: What about the “c: corn, effect on crop grade” value (corn [4]) of the same compound?
Answer: 0 (Herbicidal ratio of 5% or lower (almost no effect))

Question: What about the “R: Veronica persica, herbicidal effect grade” value (Veronica persica) of the same compound?
Answer: 0 (Herbicidal ratio of 5% or lower (almost no effect))

Question: What about the “Herbicidal effect grade, I: Avena fatua” value (Avena fatua) of the same compound?
Answer: 0 (Herbicidal ratio of 5% or lower (almost no effect))
